Results published in patent publication US9708318B2, “Bicyclic heterocycles as FGFR4 inhibitors” (Incyte Corporation, priority 2015, dated 2017).
pIC50: −log10 of the molar value. Like-named read-outs stand apart in the source and are kept apart here.

Columns and labels:
FGFR4 = FGFR4 (Homo sapiens (Human), UniProt P22455); experiment: FGFR Enzymatic Assay (FRET peptide phosphorylation), FGFR4; format: biochemical
Procedure: (§1) The inhibitor potency of the exemplified compounds was measured in an enzyme assay that measures peptide phosphorylation using FRET measurements to detect product formation. Inhibitors were serially diluted in DMSO and a volume of 0.5 μL was transferred to the wells of a 384-well plate.
(§2) The enzymes were purchased from Millipore or Invitrogen.
(§3) GraphPad prism3 was used to analyze the data.

FGFR2 = FGFR2 (Homo sapiens (Human), UniProt P21802); experiment: FGFR Enzymatic Assay (FRET peptide phosphorylation), FGFR2; format: biochemical
Chain of FGFR2 (P21802 22-821): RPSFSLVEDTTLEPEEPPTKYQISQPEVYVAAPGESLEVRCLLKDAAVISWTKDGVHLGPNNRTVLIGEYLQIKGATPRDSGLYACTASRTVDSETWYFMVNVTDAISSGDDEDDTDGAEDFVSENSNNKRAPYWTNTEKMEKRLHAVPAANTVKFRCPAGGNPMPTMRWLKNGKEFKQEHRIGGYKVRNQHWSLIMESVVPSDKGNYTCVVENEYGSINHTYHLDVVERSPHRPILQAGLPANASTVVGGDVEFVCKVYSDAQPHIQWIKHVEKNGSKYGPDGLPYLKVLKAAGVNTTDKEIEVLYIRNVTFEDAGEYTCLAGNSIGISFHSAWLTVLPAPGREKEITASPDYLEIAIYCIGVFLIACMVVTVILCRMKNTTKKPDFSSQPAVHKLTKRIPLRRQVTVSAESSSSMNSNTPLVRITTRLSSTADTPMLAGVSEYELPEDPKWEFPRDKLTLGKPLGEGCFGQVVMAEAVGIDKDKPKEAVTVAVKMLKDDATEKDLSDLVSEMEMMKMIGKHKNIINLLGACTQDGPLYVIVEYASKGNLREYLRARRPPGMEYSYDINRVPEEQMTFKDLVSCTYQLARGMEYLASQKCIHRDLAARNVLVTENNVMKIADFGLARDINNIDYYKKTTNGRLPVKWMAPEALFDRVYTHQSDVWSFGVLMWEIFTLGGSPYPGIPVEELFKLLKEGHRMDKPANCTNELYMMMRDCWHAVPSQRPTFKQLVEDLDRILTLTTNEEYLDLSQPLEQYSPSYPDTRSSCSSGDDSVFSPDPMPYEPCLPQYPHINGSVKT
Procedure: as §1, §2, §3

FGFR1 = FGFR1 (Homo sapiens (Human), UniProt P11362); experiment: FGFR Enzymatic Assay (FRET peptide phosphorylation), FGFR1; conditions: for IC50: FGFR1 IC50 (nM)
Chain of FGFR1 (P11362 22-822): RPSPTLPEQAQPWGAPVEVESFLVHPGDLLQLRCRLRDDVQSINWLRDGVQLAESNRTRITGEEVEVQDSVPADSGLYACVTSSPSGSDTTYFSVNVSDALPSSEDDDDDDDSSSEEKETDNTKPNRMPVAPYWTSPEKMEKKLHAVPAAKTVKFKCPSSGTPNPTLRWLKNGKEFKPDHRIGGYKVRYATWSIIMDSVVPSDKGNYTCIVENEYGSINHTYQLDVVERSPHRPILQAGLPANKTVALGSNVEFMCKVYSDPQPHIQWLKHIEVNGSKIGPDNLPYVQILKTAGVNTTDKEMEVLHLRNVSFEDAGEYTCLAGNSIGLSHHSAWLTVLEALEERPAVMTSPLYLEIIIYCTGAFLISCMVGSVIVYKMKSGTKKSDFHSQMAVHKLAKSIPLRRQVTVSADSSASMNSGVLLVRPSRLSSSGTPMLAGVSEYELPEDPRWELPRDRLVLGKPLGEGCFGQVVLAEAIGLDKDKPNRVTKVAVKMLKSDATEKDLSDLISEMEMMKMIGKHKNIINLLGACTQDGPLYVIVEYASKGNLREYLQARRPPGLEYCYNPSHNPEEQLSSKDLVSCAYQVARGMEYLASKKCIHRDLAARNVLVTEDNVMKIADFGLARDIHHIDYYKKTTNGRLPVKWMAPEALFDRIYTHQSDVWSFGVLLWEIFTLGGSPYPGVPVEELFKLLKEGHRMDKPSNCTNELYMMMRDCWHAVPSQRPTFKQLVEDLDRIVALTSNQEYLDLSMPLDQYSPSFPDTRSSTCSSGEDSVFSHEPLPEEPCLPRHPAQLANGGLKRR

FGFR3 enzyme = FGFR3 enzyme (Homo sapiens (Human), UniProt P22607); experiment: FGFR Enzymatic Assay (FRET peptide phosphorylation), FGFR3; format: biochemical; conditions: for FGFR1/FGFR3 IC50 ratio / FGFR4/FGFR3 IC50 ratio: FGFR3 selectivity
Chain of FGFR3 enzyme (P22607 23-806): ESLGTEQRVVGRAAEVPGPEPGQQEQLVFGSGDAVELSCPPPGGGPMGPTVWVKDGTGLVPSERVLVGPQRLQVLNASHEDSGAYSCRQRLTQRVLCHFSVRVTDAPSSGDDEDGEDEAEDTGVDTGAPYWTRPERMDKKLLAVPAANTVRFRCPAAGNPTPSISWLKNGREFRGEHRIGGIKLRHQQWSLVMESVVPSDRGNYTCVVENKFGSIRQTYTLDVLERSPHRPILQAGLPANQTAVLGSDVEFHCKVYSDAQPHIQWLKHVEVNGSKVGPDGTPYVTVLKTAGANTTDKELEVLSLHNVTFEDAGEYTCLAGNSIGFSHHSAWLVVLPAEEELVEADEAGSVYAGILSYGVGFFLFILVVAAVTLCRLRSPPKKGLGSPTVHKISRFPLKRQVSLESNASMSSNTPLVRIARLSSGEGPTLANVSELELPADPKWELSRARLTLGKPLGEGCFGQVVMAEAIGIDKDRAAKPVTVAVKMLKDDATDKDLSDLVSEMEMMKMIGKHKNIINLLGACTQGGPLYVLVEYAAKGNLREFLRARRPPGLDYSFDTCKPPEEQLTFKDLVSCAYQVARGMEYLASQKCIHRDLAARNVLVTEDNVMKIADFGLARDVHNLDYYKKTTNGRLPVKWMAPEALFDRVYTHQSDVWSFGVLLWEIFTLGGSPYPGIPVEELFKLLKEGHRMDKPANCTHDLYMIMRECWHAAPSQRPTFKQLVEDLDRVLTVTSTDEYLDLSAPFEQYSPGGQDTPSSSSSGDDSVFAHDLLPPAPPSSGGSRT
Procedure: as §1, §3

[1] = pre-incubated for 4 hours, read-out: FGFR3 IC50
[2] = pre-incubated for 5 to 10 minutes
[3] = pre-incubated for 5 to 10 minutes, read-out: FGFR3 IC50

Chain of FGFR4 (P22455 22-802): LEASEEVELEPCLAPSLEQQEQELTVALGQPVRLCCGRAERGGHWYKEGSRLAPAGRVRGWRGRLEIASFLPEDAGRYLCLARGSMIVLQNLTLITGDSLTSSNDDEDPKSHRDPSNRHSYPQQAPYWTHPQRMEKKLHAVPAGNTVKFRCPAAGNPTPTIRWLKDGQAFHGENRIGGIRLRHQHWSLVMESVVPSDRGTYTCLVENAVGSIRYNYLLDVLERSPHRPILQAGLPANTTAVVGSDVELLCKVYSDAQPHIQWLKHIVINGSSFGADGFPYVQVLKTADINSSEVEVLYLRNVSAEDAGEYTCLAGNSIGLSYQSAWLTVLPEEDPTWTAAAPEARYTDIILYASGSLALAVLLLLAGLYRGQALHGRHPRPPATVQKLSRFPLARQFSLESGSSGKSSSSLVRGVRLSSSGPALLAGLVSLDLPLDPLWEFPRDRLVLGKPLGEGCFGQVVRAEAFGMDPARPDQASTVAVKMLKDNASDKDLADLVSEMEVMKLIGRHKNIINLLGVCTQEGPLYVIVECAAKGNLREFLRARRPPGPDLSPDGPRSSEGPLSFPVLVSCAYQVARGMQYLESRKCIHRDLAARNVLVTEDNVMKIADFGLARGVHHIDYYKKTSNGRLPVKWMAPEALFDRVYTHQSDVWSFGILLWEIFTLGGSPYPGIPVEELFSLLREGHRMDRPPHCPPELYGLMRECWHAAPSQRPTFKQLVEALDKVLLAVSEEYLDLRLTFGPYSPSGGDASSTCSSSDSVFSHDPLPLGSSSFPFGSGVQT

Row | SMILES | pIC50 (FGFR4; pre-incubated for 4 hours) | pIC50 (FGFR2; pre-incubated for 4 hours) | IC50 (FGFR1; pre-incubated for 4 hours) [nM] | FGFR1/FGFR3 IC50 ratio (FGFR3 enzyme; pre-incubated for 4 hours) | FGFR4/FGFR3 IC50 ratio (FGFR3 enzyme; pre-incubated for 4 hours) | pIC50 (FGFR3 enzyme; [1]) | pIC50 (FGFR4; [2]) | pIC50 (FGFR2; [2]) | IC50 (FGFR1; [2]) [nM] | pIC50 (FGFR3 enzyme; [3]) | pIC50 (FGFR1; read-out: FGFR1 IC50, pre-incubated for 4 hours) | pIC50 (FGFR3 enzyme)
1 | CCn1cnc(-c2cc3c(cn2)CN(c2c(F)c(OC)cc(OC)c2F)C(=O)C32CC2)c1 [Example 53, 2′-(2,6-difluoro-3,5-dimethoxyphenyl)-6′-(1-ethyl-1H-imidazol-4-yl)-1′H-spiro[cyclopropane-1,4′-[2,7]naphthyridin]-3′(2′H)-one] | 7.52 to 8.00 | > 8.00 | 10 to 30 | >5 | >5 | > 8.00 | – | – | – | – | – | –
2 | COc1cc(OC)c(F)c(N2Cc3cnc(-c4cn(C)nc4C)cc3N(C3CCN(C(C)=O)CC3)C2=O)c1F [Example 43, 1-(1-acetylpiperidin-4-yl)-3-(2,6-difluoro-3,5-dimethoxyphenyl)-7-(1,3-dimethyl-1H-pyrazol-4-yl)-3,4-dihydropyrido[4,3-d]pyrimidin-2(1H)-one] | 6.70 to 7.52 | 6.70 to 7.52 | – | >10 | >5 | – | – | – | – | – | < 6.70 | 7.52 to 8.00
3 | COCCN1C(=O)N(c2c(F)c(OC)cc(OC)c2F)Cc2cnc(-c3ccc(C4(C#N)CCC4)nc3)cc21 [Example 139, 1-(5-(3-(2,6-difluoro-3,5-dimethoxyphenyl)-1-(2-methoxyethyl)-2-oxo-1,2,3,4-tetrahydropyrido[4,3-d]pyrimidin-7-yl)pyridin-2-yl)cyclobutanecarbonitrile] | – | – | – | – | – | – | 6.70 to 7.52 | > 8.00 | 30 to 200 | > 8.00 | – | –
4 | COc1cc(OC)c(F)c(N2Cc3cnc(-c4ccc(C5(C#N)CCC5)nc4)cc3N(CC3CC3)C2=O)c1F [Example 140, 1-(5-(1-(cyclopropylmethyl)-3-(2,6-difluoro-3,5-dimethoxyphenyl)-2-oxo-1,2,3,4-tetrahydropyrido[4,3-d]pyrimidin-7-yl)pyridin-2-yl)cyclobutanecarbonitrile] | – | – | – | – | – | – | 6.70 to 7.52 | > 8.00 | 30 to 200 | 7.52 to 8.00 | – | –
5 | COc1cc(OC)c(F)c(N2Cc3cnc(-c4cn(CCN(C)C)nc4C)cc3C3(CC3)C2=O)c1F [Example 164, 2′-(2,6-difluoro-3,5-dimethoxyphenyl)-6′-(1-(2-(dimethylamino)ethyl)-3-methyl-1H-pyrazol-4-yl)-1′H-spiro[cyclopropane-1,4′-[2,7]naphthyridin]-3′(2′H)-one] | 6.70 to 7.52 | 7.52 to 8.00 | 30 to 200 | >3 | >3 | 7.52 to 8.00 | – | – | – | – | – | –

Now from value to compound, other results behind:

Row | pIC50 (FGFR4; pre-incubated for 4 hours) | pIC50 (FGFR2; pre-incubated for 4 hours) | IC50 (FGFR1; pre-incubated for 4 hours) [nM] | FGFR1/FGFR3 IC50 ratio (FGFR3 enzyme; pre-incubated for 4 hours) | FGFR4/FGFR3 IC50 ratio (FGFR3 enzyme; pre-incubated for 4 hours) | pIC50 (FGFR3 enzyme; [1]) | pIC50 (FGFR4; [2]) | pIC50 (FGFR2; [2]) | IC50 (FGFR1; [2]) [nM] | pIC50 (FGFR3 enzyme; [3]) | SMILES | pIC50 (FGFR1; read-out: FGFR1 IC50, pre-incubated for 4 hours) | pIC50 (FGFR3 enzyme)
6 | 6.70 to 7.52 | > 8.00 | 10 to 30 | >5 | >10 | > 8.00 | – | – | – | – | COc1cc(OC)c(F)c(N2Cc3cnc(-c4cn(C)nc4C)cc3N(Cc3csc(C)n3)C2=O)c1F [Example 95, 3-(2,6-difluoro-3,5-dimethoxyphenyl)-7-(1,3-dimethyl-1H-pyrazol-4-yl)-1-((2-methylthiazol-4-yl)methyl)-3,4-dihydropyrido[4,3-d]pyrimidin-2(1H)-one] | – | –
7 | 6.70 to 7.52 | > 8.00 | 30 to 200 | >5 | >10 | > 8.00 | – | – | – | – | COc1cc(OC)c(F)c(N2Cc3cnc(-c4cn(C)nc4C)cc3N(c3cncc(C)n3)C2=O)c1F [Example 87, 3-(2,6-difluoro-3,5-dimethoxyphenyl)-7-(1,3-dimethyl-1H-pyrazol-4-yl)-1-(6-methylpyrazin-2-yl)-3,4-dihydropyrido[4,3-d]pyrimidin-2(1H)-one] | – | –
8 | 6.70 to 7.52 | 7.52 to 8.00 | 30 to 200 | >5 | >5 | > 8.00 | – | – | – | – | COc1cc(OC)c(F)c(N2Cc3cnc(-c4cn(C)nc4C)cc3N(Cc3ccc4c(c3)OCCO4)C2=O)c1F [Example 38, 3-(2,6-difluoro-3,5-dimethoxyphenyl)-1-((2,3-dihydrobenzo[b][1,4]dioxin-6-yl)methyl)-7-(1,3-dimethyl-1H-pyrazol-4-yl)-3,4-dihydropyrido[4,3-d]pyrimidin-2(1H)-one] | – | –
